In US5223515A, “Injectable solution containing a pyridyl methylsulfinylbenzimidazole” (Takeda Chemical Industries, Ltd., priority 1988, dated 1993):
In brackets after ≈: the same amount, converted by molar mass.

Tests used:
[1] = Example 3 / Table 3: stability of Compound (I-1) in the solution state (5 mg/ml, mixed solvents); type: physicochemical
Method: Ethanol, polyethylene glycol 400, propylene glycol and water were mixed at the composition ratios as shown in Table 3 illustrated below, and 5-mg of Compound (I-1) was dissolved in 1 ml each of the resulting solvents, respectively, followed by adjustment to pH 9.0 with 5N-aqueous sodium hydroxide solution. As a control, there were prepared a suspension of 5 mg of Compound (I-1) in 1 ml of water being adjusted to pH 9.0 with 5N-aqueous sodium hydroxide solution and an aqueous solution of 5 mg of Compound (I-1) in 1 ml of 0.02N aqueous sodium hydroxide solution. […] (A control of the suspension was not subjected to sterile-filtration).
These test specimens as filled into ampoules were investigated for each item of appearance, pH and clarity immediately after preparation and after storage at 25° C.

[2] = Example 1 / Table 1: stability of Compound (I-1) in the solution state (ethanol, propylene glycol); settings: for Content: HPLC
Description: Note, *As measured by use of highperformance liquid chromatography (HPLC)
chromatographic conditions of HPLC:
Carrier; Nucleosil 5 C18 (supplied by GasChro Kogyo K.K. of Japan)
Solvent; Methanol:water:triethylamine (60:40:1, pH 7)
Detection method; UV spectrophotometry at 285 nm

[3] = Example 4 / Table 4: stability of lyophilized Compound (I-1) after being dissolved in vials; type: physicochemical; settings: for Solubility: lyophilized powder
Method: A 1000 mg quantity of Compound (I-1) was dispersed in distilled water for
injection, and 3 ml of 1N-aqueous sodium hydroxide solution was added to
dissolve the Compound (I-1), followed by addition of water to make up the
total of 50 ml and sterile filtration by the conventional method. The
resulting filtrate was filled in 1 ml portions into vials of a 12 cm^3
capacity, followed by lyophilization by means of the conventional
technique. The lyophilized powder as contained in vials was dissolved in
in Solvent A (which was composed of 50 mg of N-methylglucamine, 0.27 ml of
1N-hydrochloric acid and 2 ml of propylene glycol being admixed with
ethanol to make up the total of 4 ml), Solvent B (which was composed of 50
mg of N-methylglucamine, 0.27 ml of 1N-hydrochloric acid, 1.2 ml of
polyethylene glycol 400 and 1.2 ml of ethanol being admixed with distilled
water for injection to make up the total of 4 ml), Solvent C (which was
composed of 50 mg of N-methylglucamine, 0.27 ml of 1N-hydrochloric acid,
1.2 ml of ethanol and 1.2 ml of propylene glycol being admixed with
distilled water for injection to make up the total of 4 ml and Solvent D
(which was composed of 50 mg of N-methylglucamine, 0.27 ml of
1N-hydrochloric acid and 2.5 ml of polyethylene glycol 400 bing admixed
with distilled water for injection to make up the total of 4 ml),
respectively, to perform inspection for their solubilities as well as to
conduct investigation into appearance, clarity and contents immediately
after dissolution and after storage at 25° C. for 24 hours.

[4] = Solubility of Compound (I-1) in water at different pH; type: physicochemical
[5] = Example 2 / Table 2: stability of Compound (I-1) in the solution state (2 mg/ml, mixed solvents); type: physicochemical
Method: Ethanol, polyethylene glycol 400, propylene glycol and water were mixed at the composition ratios as shown in Table 2 illustrated below, and 2 mg of Compound (I-1) was dissolved in 1 ml each of the resulting solvents, respectively, followed by adjustment to pH 9.0 with 5N-aqueous sodium hydroxide solution. As a control, there were prepared a suspension of 2 mg of Compound (I-1) in 1 ml of water being adjusted to pH 9.0 with 5N-aqueous sodium hydroxide solution and an aqueous solution of 2 mg of Compound (I-1) in 1 ml of 0.01N aqueous sodium hydroxide solution.

[6] = Stability of Compound (I-1) in aqueous solution; type: physicochemical
[7] = 5 mg, PEG-400 0.3 ml, ethanol 0.3 ml, water 0.4 ml, after preparation
[8] = 5 mg, PEG-400 0.4 ml, water 0.6 ml, after preparation
[9] = 5 mg, ethanol 0.3 ml, propylene glycol 0.3 ml, water 0.4 ml, after preparation
[10] = 5 mg, ethanol 0.6 ml, water, after preparation
[11] = control: 5 mg in 0.02 N aq. sodium hydroxide 1 ml, after preparation
[12] = control: 5 mg in 0.02 N aq. sodium hydroxide 1 ml, after storage at 25° C./24 hrs.
[13] = 2 mg in ethanol 1 ml, after preparation
[14] = 2 mg in ethanol 1 ml, after storage at 25° C./24 hrs.
[15] = 2 mg in propylene glycol 1 ml, after preparation
[16] = 2 mg in propylene glycol 1 ml, after storage at 25° C./24 hrs.
[17] = Solvent A, after storage at 25° C. for 24 hrs.
[18] = Solvent B, after storage at 25° C. for 24 hrs.
[19] = Solvent C, after storage at 25° C. for 24 hrs.
[20] = Solvent D, after storage at 25° C. for 24 hrs.
[21] = Solvents A-D, after storage for 24 hours
[22] = control: 2 mg in 0.01 N aq. sodium hydroxide 1 ml, after preparation
[23] = control: 2 mg in 0.01 N aq. sodium hydroxide 1 ml, after storage at 25° C./24 hrs.

- Appearance [1, 7]: Colorless
- Clarity [1, 7]: Clear
- pH ([1]; 5 mg, PEG-400 0.3 ml, ethanol 0.3 ml, water 0.4 ml, after preparation (adjusted)): 9.0
- Clarity ([1]; 5 mg, PEG-400 0.3 ml, ethanol 0.3 ml, water 0.4 ml, after storage at 25° C./24 hrs.): Clear
- Appearance [1, 8]: Colorless
- Clarity [1, 8]: Clear
- pH ([1]; 5 mg, PEG-400 0.4 ml, water 0.6 ml, after preparation (adjusted)): 9.0
- Clarity ([1]; 5 mg, PEG-400 0.4 ml, water 0.6 ml, after storage at 25° C./24 hrs.): Clear
- Appearance [1, 9]: Colorless
- Clarity [1, 9]: Clear
- pH ([1]; 5 mg, ethanol 0.3 ml, propylene glycol 0.3 ml, water 0.4 ml, after preparation (adjusted)): 9.0
- Clarity ([1]; 5 mg, ethanol 0.3 ml, propylene glycol 0.3 ml, water 0.4 ml, after storage at 25° C./24 hrs.): Clear
- Appearance [1, 10]: Colorless
- Clarity [1, 10]: Clear
- pH ([1]; 5 mg, ethanol 0.6 ml, water, after preparation (adjusted)): 9.0
- Clarity ([1]; 5 mg, ethanol 0.6 ml, water, after storage at 25° C./24 hrs.): Clear
- dissolution of control specimens ([1]; control in water adjusted to same pH as other test specimens, 5 mg/ml): failed to allow adequate dissolution
- pH needed to secure dissolution of control specimens ([1]; control, 5 mg/ml): not less than 11
- Appearance [1, 11]: Colorless
- Clarity [1, 11]: Clear
- pH [1, 11]: 11.6
- Appearance [1, 12]: Colorless
- Clarity [1, 12]: Clear
- pH ([1]; control: 5 mg in water 1 ml, after preparation (adjusted)): 8.9
- Appearance [2, 13]: Colorless
- Clarity [2, 13]: Clear
- Content ([2]; 2 mg in ethanol 1 ml, after preparation (taken as 100.0%)): 100.0%
- Appearance [2, 14]: Yellowish
- Clarity [2, 14]: Clear
- Content [2, 14]: 99.2%
- Appearance [2, 15]: Colorless
- Clarity [2, 15]: Clear
- Appearance [2, 16]: Light red-purple
- Clarity [2, 16]: Clear
- change in appearance ([2]; ethanol and propylene glycol, after storage at 25° C. for 24 hours): slight change
- pH after dissolution ([3]; Solvent A): 8.7
- Appearance ([3]; Solvent A, after dissolution): Colorless
- Clarity ([3]; Solvent A, after dissolution): Clear
- Content ([3]; Solvent A, after dissolution (taken as 100%)): 100%
- Clarity [3, 17]: Clear
- Content [3, 17]: 97.0%
- pH after dissolution ([3]; Solvent B): 9.0
- Appearance ([3]; Solvent B, after dissolution): Colorless
- Clarity ([3]; Solvent B, after dissolution): Clear
- Content ([3]; Solvent B, after dissolution (taken as 100%)): 100%
- Clarity [3, 18]: Clear
- Content [3, 18]: 96.5%
- pH after dissolution ([3]; Solvent C): 9.0
- Appearance ([3]; Solvent C, after dissolution): Colorless
- Clarity ([3]; Solvent C, after dissolution): Clear
- Content ([3]; Solvent C, after dissolution (taken as 100%)): 100%
- Clarity [3, 19]: Clear
- Content [3, 19]: 96.7%
- pH after dissolution ([3]; Solvent D): 9.0
- Appearance ([3]; Solvent D, after dissolution): Colorless
- Clarity ([3]; Solvent D, after dissolution): Clear
- Content ([3]; Solvent D, after dissolution (taken as 100%)): 100%
- Clarity [3, 20]: Clear
- Content [3, 20]: 96.1%
- Appearance ([3]; Solvents A, B, C, D (one spanning entry), after storage at 25° C. for 24 hrs.): Slightly to lightly green-yellow
- change in content [3, 21]: decrease slightly
- change in the clarity [3, 21]: no change
- changes in appearance ([3]; Solvents A-D, immediately after dissolution and after storage for 24 hours): slight changes
- dissolution of lyophilized powder ([3]; all of these solvents (A-D)): dissolved quickly
- solubilities of lyophilized powder ([3]; all of these solvents (A-D)): excellent solubilities
- Solubility ([3]; Solvent A (propylene glycol/ethanol)): Good
- Solubility ([3]; Solvent B (PEG 400/ethanol/water)): Good
- Solubility ([3]; Solvent C (ethanol/propylene glycol/water)): Good
- Solubility ([3]; Solvent D (PEG 400/water)): Good
- Solubility ([4]; pH 11, water): 1 mg/mL (≈ 2.71 mM)
- Solubility ([4]; pH 13, water): 33 mg/mL (≈ 89.3 mM)
- Appearance ([5]; 2 mg, PEG-400 0.05 ml, ethanol 0.35 ml, water 0.6 ml, after preparation): Colorless
- pH ([5]; 2 mg, PEG-400 0.05 ml, ethanol 0.35 ml, water 0.6 ml, after preparation (adjusted)): 9.0
- Content ([5]; 2 mg, PEG-400 0.05 ml, ethanol 0.35 ml, water 0.6 ml, after preparation (taken as 100.0%)): 100.0%
- Content ([5]; 2 mg, PEG-400 0.05 ml, ethanol 0.35 ml, water 0.6 ml, after storage at 25° C./24 hrs.): 98.0%
- Appearance ([5]; 2 mg, PEG-400 0.05 ml, propylene glycol 0.35 ml, water 0.6 ml, after preparation): Colorless
- pH ([5]; 2 mg, PEG-400 0.05 ml, propylene glycol 0.35 ml, water 0.6 ml, after preparation (adjusted)): 9.0
- Content ([5]; 2 mg, PEG-400 0.05 ml, propylene glycol 0.35 ml, water 0.6 ml, after preparation (taken as 100.0%)): 100.0%
- Content ([5]; 2 mg, PEG-400 0.05 ml, propylene glycol 0.35 ml, water 0.6 ml, after storage at 25° C./24 hrs.): 94.4%
- Appearance ([5]; 2 mg, PEG-400 0.4 ml, water 0.6 ml, after preparation): Colorless
- pH ([5]; 2 mg, PEG-400 0.4 ml, water 0.6 ml, after preparation (adjusted)): 9.0
- Content ([5]; 2 mg, PEG-400 0.4 ml, water 0.6 ml, after preparation (taken as 100.0%)): 100.0%
- Content ([5]; 2 mg, PEG-400 0.4 ml, water 0.6 ml, after storage at 25° C./24 hrs.): 91.8%
- Appearance ([5]; 2 mg, ethanol 0.5 ml, propylene glycol 0.5 ml, after preparation): Colorless
- pH ([5]; 2 mg, ethanol 0.5 ml, propylene glycol 0.5 ml, after preparation (adjusted)): 9.0
- Content ([5]; 2 mg, ethanol 0.5 ml, propylene glycol 0.5 ml, after preparation (taken as 100.0%)): 100.0%
- Content ([5]; 2 mg, ethanol 0.5 ml, propylene glycol 0.5 ml, after storage at 25° C./24 hrs.): 98.0%
- dissolution of control specimens ([5]; control in water adjusted to same pH as other test specimens, 2 mg/ml): failed to allow adequate dissolution
- pH needed to secure dissolution of control specimens ([5]; control, 2 mg/ml): not less than 11
- Appearance [5, 22]: Colorless
- pH [5, 22]: 11.4
- Content ([5]; control: 2 mg in 0.01 N aq. sodium hydroxide 1 ml, after preparation (taken as 100.0%)): 100.0%
- Appearance [5, 23]: Colorless
- Content [5, 23]: 92.5%
- pH ([5]; control: 2 mg in water 1 ml, after preparation (adjusted)): 9.1
- stability in an aqueous solution ([6]; alkaline solution): satisfactorily stable
- appearance of aqueous solution ([6]; neutral to acidic range, short period of time): dark purple
- stability in an aqueous solution ([6]; pH decreased to the neutral to acidic range): less stable
SMILES: Cc1c(OCC(F)(F)F)ccnc1C[S+]([O-])c1nc2ccccc2[nH]1 (centres unmarked) [Compound (I-1), 2-(3-methyl-4-trifluoroethoxy-2-pyridyl)methylsulfinylbenzimidazole]
